The record followed here is US11559575B2, “Multi-epitopic peptide compounds and vaccines against leishmaniasis” (INSTITUT DE RECHERCHE POUR LE DEVELOPPEMENT, priority 2018, dated 2023).

“Also recorded” adds a separate entry of the source.

This test relates to HLA alleles of class II. The experiment in a line: Affinity of epitopes for HLA alleles of class II. In kind it is binding, human. Conditions: for Concatenation affinity for the HLA alleles of class II: H2B-II peptides; for Concatenation affinity for the HLA alleles of class II / Affinity HLA alleles of class II: Table 1; for Affinity HLA alleles of class II: H2B-II core epitopes. From the text: The multiepitopic peptide compounds (24 to 40-mer), having a high affinity with a maximized number of HLA molecules of class I and of class II, such as the affinities for the alleles HLA of class I and HLA of class II of the epitopes in the peptides of the sequences SEQ ID NO: 22, 23, 65, 66, 69, 73, 77, 96, 97, 137, 138, and 157, 185, have a high immunoprevalent potential corresponding to an optimal vaccine coverage, in particular for the populations concerned. The degree of coverage of the peptide compounds of the invention show a very high added value compared with the peptides of the prior art.

As to “AINAQMSMSHRTMKI (Leishmania major) [SEQ ID NO: 40]”, the “Concatenation affinity for the HLA alleles of class II” value is “HLA-DRB1*01:01, HLA-DRB1*04:01, HLA-DRB1*09:01,; also recorded: HLA-DRB1*15:01, HLA-DRB4*01:01, HLA-DRB5*01:01,; also recorded: HLA-DRB3*01:01, HLA-DRB1*11:01, HLA-DRB1*07:01”.
On to “AIVTSRKVQ (Leishmania major) [SEQ ID NO: 119]”, for which, for the setting “LmlRAB-IIB core, Table 2”, the “Concatenation affinity for HLA alleles of class II” value is “HLA-DRB1*11:01”.
Consider “AIVTSRKVQEEVFDL (Leishmania major) [SEQ ID NO: 98]”, for which the “Concatenation affinity for HLA alleles of class II” value (LmlRAB-IIB peptides, Table 2) is on record as “HLA-DRB1*03:01, HLA-DRB1*11:01,; also recorded: HLA-DRB1*12:01”.
In the case of “AQMSMSHRT (Leishmania major) [SEQ ID NO: 42]”, the “Affinity HLA alleles of class II” value is listed as “HLA-DRB1*07:01”.
“DFSNMGLLL (listed as Leishmania infantum) [SEQ ID NO: 171]”: the “Concatenation affinity for HLA alleles of class II” value (PSA KC-2.7 core, Table 3) is recorded as “HLA-DPA1*01:03/; also recorded: DPB1*04:01,; also recorded: HLA-DPA1*03:01/; also recorded: DPB1*04:02”.
For “DLFTDVHYSEVSAKT (Leishmania major) [SEQ ID NO: 99]”, the “Concatenation affinity for HLA alleles of class II” value (LmlRAB-IIB peptides, Table 2) is listed as “HLA-DRB1*04:01, HLA-DRB7*01:01,; also recorded: HLA-DPA1*01:03/DPB1*02:01,; also recorded: HLA-DPA1*01/DPB1*04:01, HLA-DPA1*02:01/; also recorded: HLA-DPB1*14:01”.
“DYSHSMIRDLDFSNM (listed as Leishmania infantum) [SEQ ID NO: 158]”: the “Concatenation affinity for HLA alleles of class II” value (PSA KC-2.7 peptides, Table 3) is listed as “HLA-DRB1*04:01, HLA-DRB1*04:05,; also recorded: HLA-DRB1*07:01, HLA-DRB1*09:01,; also recorded: HLA-DRB1*12:01, HLA-DRB4*01:01,; also recorded: HLA-DPA1*02:01/DPB1*14:01”.
Consider “EEVFDLFTDVHYSEV (Leishmania major) [SEQ ID NO: 100]”, for which the “Concatenation affinity for HLA alleles of class II” value (LmlRAB-IIB peptides, Table 2) is on record as “HLA-DRB1*01:01, HLA-DRB1*03:01,; also recorded: HLA-DRB1*04:01, HLA-DRB1*04:05,; also recorded: HLA-DRB1*07:01, HLA-DRB1*15:01,; also recorded: HLA-DRB1*12:01, HLA-DRB3*01:01,; also recorded: HLA-DPA1*01:03/DPB1*02:01,; also recorded: HLA-DPA1*01/DPB1*04:01, HLA-DPA1*02:01/; also recorded: HLA-DPB1*14:01”.
“EGYFLTDEKTSLVYG (listed as Leishmania infantum) [SEQ ID NO: 139]”: the “Concatenation affinity for HLA alleles of class II” value (PSA KC-2.6 peptides, Table 3) is listed as “HLA-DRB1*12:01, HLA-DRB1*13:02,; also recorded: HLA-DRB3*01:01, HLA-DRB3*02:02,; also recorded: HLA-DPA1*03:01/DPB1*04:02; also recorded: HLA-DRB1*01:01, HLA-DRB1*03:01,; also recorded: HLA-DRB1*04:01, HLA-DRB1*04:05,; also recorded: HLA-DRB1*07:01, HLA-DRB1*11:01,”.
Take “ENAIVTSRKVQEEVF (Leishmania major) [SEQ ID NO: 101]”: the “Concatenation affinity for HLA alleles of class II” value (LmlRAB-IIB peptides, Table 2) is given as “HLA-DRB1*03:01, HLA-DRB1*07:01,; also recorded: HLA-DRB1*08:02, HLA-DRB1*11:01,; also recorded: HLA-DRB1*12:01”.
For the sequence “FDLFTDVHYSEVSAK (Leishmania major) [SEQ ID NO: 103]”, the “Concatenation affinity for HLA alleles of class II” value (LmlRAB-IIB peptides, Table 2) is listed as “HLA-DRB1*01:01, HLA-DRB1*03:01,; also recorded: HLA-DRB1*07:01, HLA-DRB1*09:01,; also recorded: HLA-DPA1*03:01/DPB1*04:02,; also recorded: HLA-DPA1*02:01/HLA-DPB1*14:01”.
With “FLTDEKTSLVYGDGG (listed as Leishmania infantum) [SEQ ID NO: 140]”, under “PSA KC-2.6 peptides, Table 3”, the “Concatenation affinity for HLA alleles of class II” value is “HLA-DRB1*03:01, HLA-DRB3*01:01”.
For the sequence “FSNMGLLLS (listed as Leishmania infantum) [SEQ ID NO: 172]”, the “Concatenation affinity for HLA alleles of class II” value (PSA KC-2.7 core, Table 3) was “HLA-DRB1*11:01”.
Take “GEGYFLTDEKTSLVY (listed as Leishmania infantum) [SEQ ID NO: 141]”: where the note is “PSA KC-2.6 peptides, Table 3”, the “Concatenation affinity for HLA alleles of class II” value was “HLA-DRB1*01:01, HLA-DRB1*03:01,; also recorded: HLA-DRB1*04:01, HLA-DRB1*04:05,; also recorded: HLA-DRB1*07:01, HLA-DRB1*11:01,; also recorded: HLA-DRB1*12:01, HLA-DRB1*13:02,; also recorded: HLA-DRB3*01:01, HLA-DRB3*02:02,; also recorded: HLA-DPA1*03:01/DPB1*04:02,; also recorded: HLA-DPA1*02:01/HDPB1*14:01”.
For the sequence “GRHLSIVADHMPHLD (Leishmania major) [SEQ ID NO: 86]”, where the note is “LmLRAB-IIA peptides, Table 2”, the “Concatenation affinity for HLA alleles of class II” value is listed as “HLA-DRB3*01:01,; also recorded: HLA-DRB1*03:01,; also recorded: HLA-DRB1*13:02,”.
On the same count and under the same terms, with “GRLHSVVGRHLSIVA (Leishmania major) [SEQ ID NO: 79]” the entry was “HLA-DRB1*07:01,; also recorded: HLA-DRB5*01:01,; also recorded: HLA-DRB1*15:01,; also recorded: HLA-DRB1*11:01,; also recorded: HLA-DRB1*09:01,; also recorded: HLA-DRB4*01:01”.
With “GRSENAIVTSRKVQE (Leishmania major) [SEQ ID NO: 104]”, the “Concatenation affinity for HLA alleles of class II” value (LmlRAB-IIB peptides, Table 2) was “HLA-DRB1*01:01, HLA-DRB1*03:01,; also recorded: HLA-DRB1*07:01, HLA-DRB1*11:01,; also recorded: HLA-DRB1*12:01, HLA-DRB5*01:01”.
For the sequence “GRSLKAINA (Leishmania major) [SEQ ID NO: 43]”, the “Affinity HLA alleles of class II” value is “HLA-DRB1*01:01”.
Regarding “GRSLKAINAQMSMSH (Leishmania major) [SEQ ID NO: 35]”, the “Concatenation affinity for the HLA alleles of class II” value is given as “HLA-DRB1*15:01, HLA-DRB1*01:01, HLA-DRB1*04:05,; also recorded: HLA-DRB1*07:01, HLA-DRB1*08:02, HLA-DRB1*09:01,; also recorded: HLA-DRB1*11:01, HLA-DRB4*01:01, HLA-DRB5*01:01,; also recorded: HLA-DRB1*04:01, HLA-DRB1*13:02”.
